Data: US10072006B2 (MUTABILIS, priority 2015, dated 2018)

How the values were obtained:
[1] = test system: K. pneumoniae 160143 (TEM-1, SHV-1, CTX-M-15, KPC-2, OXA-1); assay: microbe, parasite or virus in culture; assay type: cell-based
Protocol: (§1) Briefly, compounds alone according to the invention were prepared in DMSO and spotted (2 μL each) on sterile polystyrene plates (Corning, 3788). […] Microplates were incubated for 16-20 h at 35° C. in ambient air. The MIC of the compounds was defined as the lowest concentration of said compounds that prevented bacterial growth as read by visual inspection.

[2] = test system: E. cloacae 260508 (TEM-1, CTX-M-15); assay: microbe, parasite or virus in culture; assay type: cell-based
Protocol: as §1

[3] = test system: E. coli 190317 (TEM-1, SHV-12, CTX-M-15, OXA-1); assay: microbe, parasite or virus in culture; assay type: cell-based
Protocol: as §1

[4] = test system: K. oxytoca UFR21 (TEM-1, CTX-M-15, OXA-48); assay: microbe, parasite or virus in culture; assay type: cell-based
CTX-M-15 = target: T1, CTX-M-15 (Escherichia coli, UniProt Q9EXV5); assay: β-lactamase inhibitory activity, determination of IC50 (nitrocefin hydrolysis); assay type: biochemical
T1 construct: made in house; host or cells: E. coli

SHV-1 = target: T2, SHV-1 (Klebsiella pneumoniae, UniProt P0AD64); assay: as above; assay type: biochemical
T2 construct: made in house; host or cells: E. coli

OXA-48 = target: T3, OXA-48 (Klebsiella pneumoniae, UniProt Q6XEC0); assay: as above; assay type: biochemical
T3 construct: made in house; host or cells: E. coli

[5] = test system: E. cloacae UFR85 (TEM-1, CTX-M-15, derepressed ampC); assay: microbe, parasite or virus in culture; assay type: cell-based
Protocol: […] […] Microplates were incubated for 16-20 h at 35° C. in ambient air. The MIC of the compounds was defined as the lowest concentration of said compounds that prevented bacterial growth as read by visual inspection.

OXA-11 = target: T4, OXA-11 (Pseudomonas aeruginosa, UniProt Q06778); assay: β-lactamase inhibitory activity, determination of IC50 (nitrocefin hydrolysis); assay type: biochemical
T4 construct: made in house; host or cells: E. coli

OXA-15 = target: T5, OXA-15 (Pseudomonas aeruginosa, UniProt Q51574); assay: as above; assay type: biochemical
T5 construct: made in house; host or cells: E. coli

[6] = test system: K. pneumoniae UFR68 (TEM-1, SHV-11, CTX-M-15, KPC-3); assay: microbe, parasite or virus in culture; assay type: cell-based
[7] = test system: K. pneumoniae 200047 (TEM-1, SHV-32, CTX-M-15, OXA-1); assay: microbe, parasite or virus in culture; assay type: cell-based
[8] = test system: E. cloacae UFR70 (TEM-1, CTX-M-15, CMY-2, OXA-1, Porin loss); assay: MIC of compounds and synergy with ceftazidime (broth microdilution); assay type: cell-based
Protocol: as §1

[9] = test system: P. aeruginosa UFR90 (Derepressed ampC, OprD-); assay: as above; assay type: cell-based
Protocol: as §1

[10] = test system: P. aeruginosa UFR92 (Derepressed ampC, OprD-); assay: as above; assay type: cell-based
Protocol: as §1

[11] = test system: P. aeruginosa UFR93 (Derepressed ampC, OprD-, MexAB+, MexXY+); assay: as above; assay type: cell-based
Protocol: as §1

OXA-1 = target: T6, OXA-1 (Escherichia coli, UniProt P13661); assay: β-lactamase inhibitory activity, determination of IC50 (nitrocefin hydrolysis); assay type: biochemical
T6 construct: made in house; host or cells: E. coli

KPC-2 = target: T7, KPC-2 (Klebsiella pneumoniae, UniProt Q9F663); assay: as above; assay type: biochemical
T7 construct: made in house; host or cells: E. coli

[12] = Klebsiella pneumoniae, 18 h, read-out: MIC compounds of the invention alone
[13] = Enterobacter cloacae, 18 h, read-out: MIC compounds of the invention alone
[14] = Pseudomonas aeruginosa, 18 h, read-out: MIC compounds of the invention alone

T3 sequence (Q6XEC0 23-265 limits assumed): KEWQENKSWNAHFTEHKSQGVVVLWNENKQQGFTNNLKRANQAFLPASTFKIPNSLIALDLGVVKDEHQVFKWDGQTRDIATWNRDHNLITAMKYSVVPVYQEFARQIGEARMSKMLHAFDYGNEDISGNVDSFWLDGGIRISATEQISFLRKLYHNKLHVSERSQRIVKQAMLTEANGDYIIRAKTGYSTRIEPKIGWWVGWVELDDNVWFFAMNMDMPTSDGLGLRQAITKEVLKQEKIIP
T4 sequence (Q06778 21-266): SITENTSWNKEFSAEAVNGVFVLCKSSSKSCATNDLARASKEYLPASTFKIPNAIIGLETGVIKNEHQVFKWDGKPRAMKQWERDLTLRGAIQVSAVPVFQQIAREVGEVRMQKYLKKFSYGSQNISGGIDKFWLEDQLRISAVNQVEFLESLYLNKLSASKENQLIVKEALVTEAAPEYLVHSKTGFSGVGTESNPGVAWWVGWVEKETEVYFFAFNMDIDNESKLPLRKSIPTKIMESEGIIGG
T7 sequence (Q9F663 25-293 limits assumed): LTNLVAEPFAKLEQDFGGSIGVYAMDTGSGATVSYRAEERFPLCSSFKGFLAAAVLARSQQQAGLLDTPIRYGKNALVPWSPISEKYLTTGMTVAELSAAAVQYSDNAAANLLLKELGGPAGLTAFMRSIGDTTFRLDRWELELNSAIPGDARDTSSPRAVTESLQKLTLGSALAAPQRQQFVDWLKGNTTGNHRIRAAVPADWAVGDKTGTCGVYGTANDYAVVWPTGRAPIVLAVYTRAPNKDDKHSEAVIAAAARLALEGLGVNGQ
T5 sequence (Q51574 22-275): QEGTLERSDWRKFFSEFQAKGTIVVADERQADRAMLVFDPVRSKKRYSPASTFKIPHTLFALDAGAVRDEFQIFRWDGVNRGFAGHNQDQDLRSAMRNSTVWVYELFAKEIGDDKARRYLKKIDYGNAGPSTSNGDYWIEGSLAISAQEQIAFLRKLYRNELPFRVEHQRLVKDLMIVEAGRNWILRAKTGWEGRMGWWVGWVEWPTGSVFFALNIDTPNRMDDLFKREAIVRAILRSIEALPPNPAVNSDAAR
T1 sequence (Q9EXV5 entry or part of it): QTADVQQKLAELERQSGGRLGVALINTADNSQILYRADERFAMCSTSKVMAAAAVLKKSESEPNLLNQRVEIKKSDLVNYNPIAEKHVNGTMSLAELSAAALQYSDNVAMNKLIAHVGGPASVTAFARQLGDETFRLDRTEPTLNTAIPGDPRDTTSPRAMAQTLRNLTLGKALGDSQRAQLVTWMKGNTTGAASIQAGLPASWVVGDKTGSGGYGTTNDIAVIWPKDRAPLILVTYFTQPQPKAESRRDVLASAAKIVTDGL
T2 sequence (P0AD64 22-286): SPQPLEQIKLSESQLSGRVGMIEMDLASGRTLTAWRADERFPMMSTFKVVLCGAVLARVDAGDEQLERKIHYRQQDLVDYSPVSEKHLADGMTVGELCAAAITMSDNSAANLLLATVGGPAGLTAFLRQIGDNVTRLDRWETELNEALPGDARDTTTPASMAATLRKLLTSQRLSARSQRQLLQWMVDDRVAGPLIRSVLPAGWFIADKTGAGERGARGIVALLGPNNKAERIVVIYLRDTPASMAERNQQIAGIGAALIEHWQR
T6 sequence (P13661 26-276): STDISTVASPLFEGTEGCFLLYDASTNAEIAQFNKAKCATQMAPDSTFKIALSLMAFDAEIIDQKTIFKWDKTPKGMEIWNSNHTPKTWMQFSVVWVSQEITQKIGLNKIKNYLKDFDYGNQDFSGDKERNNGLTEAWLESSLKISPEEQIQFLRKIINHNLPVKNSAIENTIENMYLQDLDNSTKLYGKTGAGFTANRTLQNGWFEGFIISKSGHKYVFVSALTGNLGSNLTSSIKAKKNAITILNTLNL

Question: What does the source list for NC[C@H]1C=C(c2cnco2)[C@@H]2CN1C(=O)N2OS(=O)(=O)[O-].O=C(O)C(F)(F)F.[Na+] (relative stereo) [Example 1, Sodium and 2,2,2-trifluoroacetate [trans-2-(azaniumylmethyl)-4-oxazol-5-yl-7-oxo-1,6-diazabicyclo[3.2.1]oct-3-en-6-yl] sulfate]?
Answer: MIC [1, 12]: > 32 µg/mL; MIC, combination of CAZ and compounds of the invention ([1]; MIC of ceftazidime with compound fixed at 4 μg/mL, strain 160143 (K. pneumoniae)): 1 µg/mL; MIC ([2]; Enterobacter cloacae, read-out: MIC compounds of the invention alone): 0.063 µg/mL; MIC, combination of CAZ and compounds of the invention ([2]; MIC of ceftazidime with compound fixed at 4 μg/mL, strain 260508 (E. cloacae)): ≤0.125 µg/mL; MIC ([3]; Escherichia coli, 18 h, read-out: MIC compounds of the invention alone): 0.031 µg/mL; MIC, combination of CAZ and compounds of the invention ([3]; MIC of ceftazidime with compound fixed at 4 μg/mL, strain 190317 (E. coli)): <0.25 µg/mL; MIC ([4]; Klebsiella oxytoca, 18 h, read-out: MIC compounds of the invention alone): > 32 µg/mL; MIC, combination of CAZ and compounds of the invention ([4]; MIC of ceftazidime with compound fixed at 4 μg/mL, strain UFR21 (K. oxytoca)): 0.5 µg/mL; IC50 (CTX-M-15): 5.4 nM; IC50 (SHV-1): 1.3 nM; IC50 (OXA-48): 0.51 nM; MIC [5, 13]: > 32 µg/mL; MIC, combination of CAZ and compounds of the invention ([5]; MIC of ceftazidime with compound fixed at 4 μg/mL, strain UFR85 (E. cloacae)): 2 µg/mL; IC50 (OXA-11): 4.1 nM; IC50 (OXA-15): 0.65 nM; MIC [6, 12]: > 32 µg/mL; MIC, combination of CAZ and compounds of the invention ([6]; MIC of ceftazidime with compound fixed at 4 μg/mL, strain UFR68 (K. pneumoniae)): 1 µg/mL; MIC [7, 12]: > 32 µg/mL; MIC, combination of CAZ and compounds of the invention ([7]; MIC of ceftazidime with compound fixed at 4 μg/mL, strain 200047 (K. pneumoniae)): 0.5 µg/mL; MIC [8, 13]: 16 µg/mL; MIC, combination of CAZ and compounds of the invention ([8]; MIC of ceftazidime with compound fixed at 4 μg/mL, strain UFR70 (E. cloacae)): 1 µg/mL; MIC, combination of CAZ and compounds of the invention ([9]; MIC of ceftazidime with compound fixed at 4 μg/mL, strain UFR90 (P. aeruginosa)): <0.25 µg/mL; MIC [9, 14]: 0.5 µg/mL; MIC, combination of CAZ and compounds of the invention ([10]; MIC of ceftazidime with compound fixed at 4 μg/mL, strain UFR92 (P. aeruginosa)): <0.25 µg/mL; MIC [10, 14]: 2 µg/mL; MIC, combination of CAZ and compounds of the invention ([11]; MIC of ceftazidime with compound fixed at 4 μg/mL, strain UFR93 (P. aeruginosa)): <0.25 µg/mL; MIC [11, 14]: 8 µg/mL; IC50 (OXA-1): 80 nM; IC50 (KPC-2): 7.8 nM
